Source: the NIST ThermoML archive (doi:10.1021/acs.jced.7b00433)
± gives the expanded uncertainty stated by the source.

Test: xn = mol fraction of the nth substance listed
Conditions: Drop volume

NCC(=O)O [2-aminoacetic acid] + O
surface tension liquid-gas (293.15 K, x1 = 0.000175): 72.47 ± 0.28 mN/m | surface tension liquid-gas (293.15 K, x1 = 0.000349): 72.49 ± 0.28 mN/m | surface tension liquid-gas (293.15 K, x1 = 0.000698): 72.52 ± 0.28 mN/m | surface tension liquid-gas (293.15 K, x1 = 0.001043): 72.57 ± 0.28 mN/m | surface tension liquid-gas (293.15 K, x1 = 0.001394): 72.62 ± 0.28 mN/m | surface tension liquid-gas (293.15 K, x1 = 0.00174): 72.68 ± 0.28 mN/m | surface tension liquid-gas (293.15 K, x1 = 0.002087): 72.73 ± 0.28 mN/m | surface tension liquid-gas (293.15 K, x1 = 0.002641): 72.81 ± 0.28 mN/m | surface tension liquid-gas (298.15 K, x1 = 0.000175): 71.75 ± 0.27 mN/m | surface tension liquid-gas (298.15 K, x1 = 0.000349): 71.79 ± 0.27 mN/m | surface tension liquid-gas (298.15 K, x1 = 0.000698): 71.86 ± 0.27 mN/m | surface tension liquid-gas (298.15 K, x1 = 0.001043): 71.92 ± 0.27 mN/m | surface tension liquid-gas (298.15 K, x1 = 0.001394): 71.99 ± 0.28 mN/m | surface tension liquid-gas (298.15 K, x1 = 0.00174): 72.05 ± 0.28 mN/m | surface tension liquid-gas (298.15 K, x1 = 0.002087): 72.11 ± 0.28 mN/m | surface tension liquid-gas (298.15 K, x1 = 0.002641): 72.2 ± 0.28 mN/m | surface tension liquid-gas (303.15 K, x1 = 0.000175): 71.04 ± 0.27 mN/m | surface tension liquid-gas (303.15 K, x1 = 0.000349): 71.12 ± 0.27 mN/m | surface tension liquid-gas (303.15 K, x1 = 0.000698): 71.23 ± 0.27 mN/m | surface tension liquid-gas (303.15 K, x1 = 0.001043): 71.33 ± 0.27 mN/m | surface tension liquid-gas (303.15 K, x1 = 0.001394): 71.43 ± 0.27 mN/m | surface tension liquid-gas (303.15 K, x1 = 0.00174): 71.54 ± 0.27 mN/m | surface tension liquid-gas (303.15 K, x1 = 0.002087): 71.64 ± 0.27 mN/m | surface tension liquid-gas (303.15 K, x1 = 0.002641): 71.76 ± 0.27 mN/m | surface tension liquid-gas (308.15 K, x1 = 0.000175): 70.26 ± 0.27 mN/m | surface tension liquid-gas (308.15 K, x1 = 0.000349): 70.38 ± 0.27 mN/m | surface tension liquid-gas (308.15 K, x1 = 0.000698): 70.52 ± 0.27 mN/m | surface tension liquid-gas (308.15 K, x1 = 0.001043): 70.66 ± 0.27 mN/m | surface tension liquid-gas (308.15 K, x1 = 0.001394): 70.81 ± 0.27 mN/m | surface tension liquid-gas (308.15 K, x1 = 0.00174): 70.95 ± 0.27 mN/m | surface tension liquid-gas (308.15 K, x1 = 0.002087): 71.09 ± 0.27 mN/m | surface tension liquid-gas (308.15 K, x1 = 0.002641): 71.25 ± 0.27 mN/m | surface tension liquid-gas (313.15 K, x1 = 0.000175): 69.49 ± 0.27 mN/m | surface tension liquid-gas (313.15 K, x1 = 0.000349): 69.63 ± 0.27 mN/m | surface tension liquid-gas (313.15 K, x1 = 0.000698): 69.79 ± 0.27 mN/m | surface tension liquid-gas (313.15 K, x1 = 0.001043): 69.95 ± 0.27 mN/m | surface tension liquid-gas (313.15 K, x1 = 0.001394): 70.11 ± 0.27 mN/m | surface tension liquid-gas (313.15 K, x1 = 0.00174): 70.27 ± 0.27 mN/m | surface tension liquid-gas (313.15 K, x1 = 0.002087): 70.43 ± 0.27 mN/m | surface tension liquid-gas (313.15 K, x1 = 0.002641): 70.61 ± 0.27 mN/m
